In this assay the target is PIK3CG (human) (UniProt P48736). Briefly: Assessment of PIK3CG Kinase Activity.
PIK3CG (human), sequence (P48736 whole entry, looked up): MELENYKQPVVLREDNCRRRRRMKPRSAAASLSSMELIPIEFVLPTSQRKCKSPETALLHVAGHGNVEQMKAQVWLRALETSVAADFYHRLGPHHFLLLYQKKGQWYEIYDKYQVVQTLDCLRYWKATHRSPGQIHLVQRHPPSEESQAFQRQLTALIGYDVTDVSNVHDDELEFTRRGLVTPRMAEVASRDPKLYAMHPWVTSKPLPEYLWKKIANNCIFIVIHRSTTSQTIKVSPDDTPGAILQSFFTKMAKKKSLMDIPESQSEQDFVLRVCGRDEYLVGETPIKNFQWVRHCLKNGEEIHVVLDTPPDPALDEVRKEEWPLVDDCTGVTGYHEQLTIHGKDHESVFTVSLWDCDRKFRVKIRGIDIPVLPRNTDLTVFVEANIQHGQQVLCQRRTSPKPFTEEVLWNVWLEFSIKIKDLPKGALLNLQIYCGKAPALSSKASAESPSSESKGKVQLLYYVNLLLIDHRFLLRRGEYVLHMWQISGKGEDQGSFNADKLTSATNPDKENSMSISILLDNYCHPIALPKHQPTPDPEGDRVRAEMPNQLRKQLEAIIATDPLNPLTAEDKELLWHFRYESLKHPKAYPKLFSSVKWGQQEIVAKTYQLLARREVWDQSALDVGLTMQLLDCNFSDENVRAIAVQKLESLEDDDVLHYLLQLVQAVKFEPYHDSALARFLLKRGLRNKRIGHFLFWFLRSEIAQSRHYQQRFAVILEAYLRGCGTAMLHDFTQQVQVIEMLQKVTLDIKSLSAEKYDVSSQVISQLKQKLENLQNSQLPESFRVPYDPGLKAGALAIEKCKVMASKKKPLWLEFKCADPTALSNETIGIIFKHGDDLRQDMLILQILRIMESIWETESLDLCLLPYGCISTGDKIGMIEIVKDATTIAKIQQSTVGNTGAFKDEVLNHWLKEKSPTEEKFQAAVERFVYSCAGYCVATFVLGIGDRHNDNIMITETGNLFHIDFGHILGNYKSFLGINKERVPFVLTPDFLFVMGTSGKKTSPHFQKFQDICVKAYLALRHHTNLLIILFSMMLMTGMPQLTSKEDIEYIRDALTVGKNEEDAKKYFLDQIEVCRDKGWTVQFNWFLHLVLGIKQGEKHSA
`CC(=O)Nc1nc2c(s1)-c1nc(-c3cc(Cl)cc(C#CCNS(C)(=O)=O)c3)ncc1CC2` gave a concentration for half-maximal inhibition (IC50) of less than 600 nM.
To `COC1(C#Cc2ccc(F)c(-c3ncc4c(n3)-c3sc(NC(C)=O)nc3CC4)c2)CCN(C2CCCC2)CC1` belongs less than 600 nM.
On to `CC(=O)NCC#Cc1ccc(Cl)c(-c2ncc3c(n2)-c2sc(NC(C)=O)nc2CC3)c1`, for which the half-inhibitory concentration (IC50) was less than 600 nM.
To `CC(=O)Nc1nc2c(s1)-c1nc(-c3cccc(C#CCNC(=O)C4CCN(C)CC4)c3)ncc1CC2` belongs less than 600 nM; to `COC1CCN(S(=O)(=O)NCC#Cc2ccc(Cl)c(-c3ncc4c(n3)-c3sc(NC(C)=O)nc3CC4)c2)CC1`, less than 600 nM; to `CC(=O)Nc1nc2c(s1)-c1nc(-c3cc(C#CCN4CCN(C5CCCC5)CC4)ccc3Cl)ncc1CC2`, less than 600 nM.
To `CC(=O)Nc1nc2c(s1)-c1nc(-c3cc(C#CC4CCN(C(=O)NC5CCCC5)CC4)ccc3Cl)ncc1CC2` belongs less than 600 nM.
The molecule `CC(=O)Nc1nc2c(s1)-c1nc(-c3cc(C#CC4(O)CCCCC4)ccc3Cl)ncc1CC2` registered a 50% inhibitory concentration (IC50) of less than 600 nM.
For the molecule `CC(=O)Nc1nc2c(s1)-c1nc(-c3cc(C#CCNS(=O)(=O)c4ccoc4)ccc3Cl)ncc1CC2`, the IC50 was less than 600 nM.
To `CC(=O)Nc1nc2c(s1)-c1nc(-c3cc(C#CCNC(=O)NCC4CCCCC4)ccc3Cl)ncc1CC2` belongs less than 600 nM; to `CC(=O)Nc1nc2c(s1)-c1nc(-c3cc(C#CCN(C)S(=O)(=O)C(C)C)ccc3Cl)ncc1CC2`, less than 600 nM.
Regarding `CC(=O)Nc1nc2c(s1)-c1nc(-c3cccc(C#CCNC(=O)C4CCCC4)c3)ncc1CC2`, the IC50 was less than 600 nM.
To `CC(=O)Nc1nc2c(s1)-c1nc(-c3cccc(C#CC4CCN(C)CC4)c3)ncc1CC2` belongs less than 600 nM.
For `CC(=O)Nc1nc2c(s1)-c1nc(-c3cc(C#CCNC(=O)NC(C)(C)C)ccc3Cl)ncc1CC2` the value was less than 600 nM.
Regarding `CC(=O)Nc1nc2c(s1)-c1nc(-c3cccc(C#CC4CCN(CC5CCCC5)CC4)c3)ncc1CC2`, the IC50 is less than 600 nM.
`CC(=O)Nc1nc2c(s1)-c1nc(-c3cc(C#CCNC(=O)N(C)C)ccc3Cl)ncc1CC2` returned an IC50 of less than 600 nM.
For `CC(=O)Nc1nc2c(s1)-c1nc(-c3cc(C#CCNC4CCCC4)ccc3Cl)ncc1CC2` the value was less than 600 nM; for `CC(=O)Nc1nc2c(s1)-c1nc(-c3cccc(C#CCN(C)C)c3)ncc1CC2`, less than 600 nM; for `CC(=O)Nc1nc2c(s1)-c1nc(-c3cc(C#CC4CCN(C(=O)C5CCCC5)CC4)ccc3Cl)ncc1CC2`, less than 600 nM.
For `CC(=O)Nc1nc2c(s1)-c1nc(-c3cc(C#CCNC(=O)N4CCCC4)ccc3Cl)ncc1CC2` the value was less than 600 nM; for `CC(=O)Nc1nc2c(s1)-c1nc(-c3cc(C#CCO[C@@H]4CN5CCC4CC5)ccc3Cl)ncc1CC2`, less than 600 nM; for `CC(=O)Nc1nc2c(s1)-c1nc(-c3cc(C#CCN4CCS(=O)(=O)CC4)ccc3Cl)ncc1CC2`, less than 600 nM.
For `CC(=O)Nc1nc2c(s1)-c1nc(-c3cc(Cl)cc(C#CCN(C)S(C)(=O)=O)c3)ncc1CC2` the value was less than 600 nM; for `CC(=O)Nc1nc2c(s1)-c1nc(-c3cc(C#CCNC(=O)C4CC4)ccc3Cl)ncc1CC2`, less than 600 nM; for `CC(=O)Nc1nc2c(s1)-c1nc(-c3cc(C#CCN4CCN(C(C)C)CC4)ccc3Cl)ncc1CC2`, less than 600 nM.

The values are drawn from the Kinase Knowledgebase extract (Sharma et al. 2016).
